Results as given in PubChem BioAssay (NCI).
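Assay format: 96-well plates, 48-hour exposure. TGI: total growth inhibition.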

test system: SK-MEL-28 melanoma; assay: NCI anticancer screen, dose series, 48 h

Question: Which TGI does the source give for `COc1cc(OCc2ccc3nc(-c4ccccc4)c(Cl)nc3c2)cc(OC)c1OC` here?
Answer: > 100 µM

Question: `CCC(Sc1cc(Cl)c(C)cc1S(=O)(=O)Nc1nc(N)nc(N(C)C)n1)C(=O)O` (configuration not stated) was tested. Which TGI did it give?
Answer: > 10 µM

Question: How did the TGI turn out when `O=C(N/N=C/c1ccc2c(c1)OCO2)Nc1ccccc1Cl` was run?
Answer: > 100 µM

Question: For `CC1(C)C2CCC3=C(CCC4(C)C5C[C@](C)(C(=O)O)CC[C@]5(C)CC[C@]34C)[C@@]2(C)CC[C@@H]1O` (some centres not stated), which TGI is on record?
Answer: 33.7 µM

Question: With `CCOC(=O)C(SCCO)C(C(=O)OCC)n1cnc2c(N)ncnc21` (configuration not stated) as the compound, how does the TGI read?
Answer: 34.3 µM

Question: How did the TGI turn out when `O=C1CC(CC(O)[C@@H]2CCCC[C@@H]2O)CC(=O)N1c1ccccc1` (some centres not stated) was run?
Answer: > 100 µM

Question: How did the TGI turn out when `COc1ccc2nc3c([N+](=O)[O-])ccc4c3c(c2c1)N=CN4CCCN(C)C` was run?
Answer: 31.5 µM

Question: `Cc1c(C)c2c(c(N)c1C#N)C(=O)N(CCc1ccccc1)C2=O` was tested. Which TGI did it give?
Answer: > 100 µM

test system: A498 renal; assay: NCI anticancer screen, dose series, 48 h

Question: For `COc1cc(OCc2ccc3nc(-c4ccccc4)c(Cl)nc3c2)cc(OC)c1OC`, which TGI is on record?
Answer: 98.9 µM

Question: Which TGI does the source give for `CCC(Sc1cc(Cl)c(C)cc1S(=O)(=O)Nc1nc(N)nc(N(C)C)n1)C(=O)O` (configuration not stated) here?
Answer: > 10 µM

Question: `O=C(N/N=C/c1ccc2c(c1)OCO2)Nc1ccccc1Cl` was tested. Which TGI did it give?
Answer: 35.6 µM

Question: How did the TGI turn out when `CC1(C)C2CCC3=C(CCC4(C)C5C[C@](C)(C(=O)O)CC[C@]5(C)CC[C@]34C)[C@@]2(C)CC[C@@H]1O` (some centres not stated) was run?
Answer: 44.7 µM

Question: Which TGI does the source give for `CCOC(=O)C(SCCO)C(C(=O)OCC)n1cnc2c(N)ncnc21` (configuration not stated) here?
Answer: 19.2 µM

Question: With `O=C1CC(CC(O)[C@@H]2CCCC[C@@H]2O)CC(=O)N1c1ccccc1` (some centres not stated) as the compound, how does the TGI read?
Answer: > 100 µM

Question: For `COc1ccc2nc3c([N+](=O)[O-])ccc4c3c(c2c1)N=CN4CCCN(C)C`, which TGI is on record?
Answer: 21.4 µM

Question: `Cc1c(C)c2c(c(N)c1C#N)C(=O)N(CCc1ccccc1)C2=O` was tested. Which TGI did it give?
Answer: > 100 µM

test system: A549 NSCLC; assay: NCI anticancer screen, dose series, 48 h

Question: With `COc1cc(OCc2ccc3nc(-c4ccccc4)c(Cl)nc3c2)cc(OC)c1OC` as the compound, how does the TGI read?
Answer: > 100 µM

Question: `CCC(Sc1cc(Cl)c(C)cc1S(=O)(=O)Nc1nc(N)nc(N(C)C)n1)C(=O)O` (configuration not stated) was tested. Which TGI did it give?
Answer: > 10 µM

Question: Which TGI does the source give for `O=C(N/N=C/c1ccc2c(c1)OCO2)Nc1ccccc1Cl` here?
Answer: > 100 µM

Question: Which TGI does the source give for `CC1(C)C2CCC3=C(CCC4(C)C5C[C@](C)(C(=O)O)CC[C@]5(C)CC[C@]34C)[C@@]2(C)CC[C@@H]1O` (some centres not stated) here?
Answer: 26.6 µM

Question: With `CCOC(=O)C(SCCO)C(C(=O)OCC)n1cnc2c(N)ncnc21` (configuration not stated) as the compound, how does the TGI read?
Answer: > 100 µM

Question: `O=C1CC(CC(O)[C@@H]2CCCC[C@@H]2O)CC(=O)N1c1ccccc1` (some centres not stated) was tested. Which TGI did it give?
Answer: > 100 µM

Question: With `COc1ccc2nc3c([N+](=O)[O-])ccc4c3c(c2c1)N=CN4CCCN(C)C` as the compound, how does the TGI read?
Answer: 13.4 µM

Question: With `Cc1c(C)c2c(c(N)c1C#N)C(=O)N(CCc1ccccc1)C2=O` as the compound, how does the TGI read?
Answer: > 100 µM

test system: MCF7 breast; assay: NCI anticancer screen, dose series, 48 h

Question: `COc1cc(OCc2ccc3nc(-c4ccccc4)c(Cl)nc3c2)cc(OC)c1OC` was tested. Which TGI did it give?
Answer: > 100 µM

Question: `CCC(Sc1cc(Cl)c(C)cc1S(=O)(=O)Nc1nc(N)nc(N(C)C)n1)C(=O)O` (configuration not stated) was tested. Which TGI did it give?
Answer: > 10 µM

Question: How did the TGI turn out when `O=C(N/N=C/c1ccc2c(c1)OCO2)Nc1ccccc1Cl` was run?
Answer: > 100 µM

Question: With `CC1(C)C2CCC3=C(CCC4(C)C5C[C@](C)(C(=O)O)CC[C@]5(C)CC[C@]34C)[C@@]2(C)CC[C@@H]1O` (some centres not stated) as the compound, how does the TGI read?
Answer: 40.4 µM

Question: `CCOC(=O)C(SCCO)C(C(=O)OCC)n1cnc2c(N)ncnc21` (configuration not stated) was tested. Which TGI did it give?
Answer: 20.1 µM

Question: With `O=C1CC(CC(O)[C@@H]2CCCC[C@@H]2O)CC(=O)N1c1ccccc1` (some centres not stated) as the compound, how does the TGI read?
Answer: > 100 µM

Question: With `COc1ccc2nc3c([N+](=O)[O-])ccc4c3c(c2c1)N=CN4CCCN(C)C` as the compound, how does the TGI read?
Answer: 11.6 µM

Question: For `Cc1c(C)c2c(c(N)c1C#N)C(=O)N(CCc1ccccc1)C2=O`, which TGI is on record?
Answer: > 100 µM

test system: HCT-116 colon; assay: NCI anticancer screen, dose series, 48 h

Question: For `COc1cc(OCc2ccc3nc(-c4ccccc4)c(Cl)nc3c2)cc(OC)c1OC`, which TGI is on record?
Answer: > 100 µM

Question: For `CCC(Sc1cc(Cl)c(C)cc1S(=O)(=O)Nc1nc(N)nc(N(C)C)n1)C(=O)O` (configuration not stated), which TGI is on record?
Answer: > 10 µM

Question: `O=C(N/N=C/c1ccc2c(c1)OCO2)Nc1ccccc1Cl` was tested. Which TGI did it give?
Answer: > 100 µM

Question: Which TGI does the source give for `CC1(C)C2CCC3=C(CCC4(C)C5C[C@](C)(C(=O)O)CC[C@]5(C)CC[C@]34C)[C@@]2(C)CC[C@@H]1O` (some centres not stated) here?
Answer: 30.2 µM

Question: `CCOC(=O)C(SCCO)C(C(=O)OCC)n1cnc2c(N)ncnc21` (configuration not stated) was tested. Which TGI did it give?
Answer: 22.2 µM

Question: Which TGI does the source give for `O=C1CC(CC(O)[C@@H]2CCCC[C@@H]2O)CC(=O)N1c1ccccc1` (some centres not stated) here?
Answer: > 100 µM

Question: Which TGI does the source give for `COc1ccc2nc3c([N+](=O)[O-])ccc4c3c(c2c1)N=CN4CCCN(C)C` here?
Answer: 14.1 µM

Question: Which TGI does the source give for `Cc1c(C)c2c(c(N)c1C#N)C(=O)N(CCc1ccccc1)C2=O` here?
Answer: > 100 µM

test system: HCT-15 colon; assay: NCI anticancer screen, dose series, 48 h

Question: With `COc1cc(OCc2ccc3nc(-c4ccccc4)c(Cl)nc3c2)cc(OC)c1OC` as the compound, how does the TGI read?
Answer: > 100 µM

Question: How did the TGI turn out when `CCC(Sc1cc(Cl)c(C)cc1S(=O)(=O)Nc1nc(N)nc(N(C)C)n1)C(=O)O` (configuration not stated) was run?
Answer: > 10 µM

Question: Which TGI does the source give for `O=C(N/N=C/c1ccc2c(c1)OCO2)Nc1ccccc1Cl` here?
Answer: > 100 µM

Question: How did the TGI turn out when `CC1(C)C2CCC3=C(CCC4(C)C5C[C@](C)(C(=O)O)CC[C@]5(C)CC[C@]34C)[C@@]2(C)CC[C@@H]1O` (some centres not stated) was run?
Answer: 37.7 µM

Question: How did the TGI turn out when `CCOC(=O)C(SCCO)C(C(=O)OCC)n1cnc2c(N)ncnc21` (configuration not stated) was run?
Answer: 22.5 µM

Question: How did the TGI turn out when `O=C1CC(CC(O)[C@@H]2CCCC[C@@H]2O)CC(=O)N1c1ccccc1` (some centres not stated) was run?
Answer: > 100 µM

Question: `COc1ccc2nc3c([N+](=O)[O-])ccc4c3c(c2c1)N=CN4CCCN(C)C` was tested. Which TGI did it give?
Answer: 15.2 µM

Question: For `Cc1c(C)c2c(c(N)c1C#N)C(=O)N(CCc1ccccc1)C2=O`, which TGI is on record?
Answer: > 100 µM

test system: HOP-92 NSCLC; assay: NCI anticancer screen, dose series, 48 h

Question: `COc1cc(OCc2ccc3nc(-c4ccccc4)c(Cl)nc3c2)cc(OC)c1OC` was tested. Which TGI did it give?
Answer: 78.3 µM

Question: For `CCC(Sc1cc(Cl)c(C)cc1S(=O)(=O)Nc1nc(N)nc(N(C)C)n1)C(=O)O` (configuration not stated), which TGI is on record?
Answer: > 10 µM

Question: How did the TGI turn out when `O=C(N/N=C/c1ccc2c(c1)OCO2)Nc1ccccc1Cl` was run?
Answer: > 40 µM

Question: `CC1(C)C2CCC3=C(CCC4(C)C5C[C@](C)(C(=O)O)CC[C@]5(C)CC[C@]34C)[C@@]2(C)CC[C@@H]1O` (some centres not stated) was tested. Which TGI did it give?
Answer: 38.7 µM

Question: How did the TGI turn out when `CCOC(=O)C(SCCO)C(C(=O)OCC)n1cnc2c(N)ncnc21` (configuration not stated) was run?
Answer: 13.4 µM

Question: For `O=C1CC(CC(O)[C@@H]2CCCC[C@@H]2O)CC(=O)N1c1ccccc1` (some centres not stated), which TGI is on record?
Answer: > 100 µM

Question: `COc1ccc2nc3c([N+](=O)[O-])ccc4c3c(c2c1)N=CN4CCCN(C)C` was tested. Which TGI did it give?
Answer: 8.94 µM

Question: For `Cc1c(C)c2c(c(N)c1C#N)C(=O)N(CCc1ccccc1)C2=O`, which TGI is on record?
Answer: > 100 µM

test system: HS 578T breast; assay: NCI anticancer screen, dose series, 48 h

Question: For `COc1cc(OCc2ccc3nc(-c4ccccc4)c(Cl)nc3c2)cc(OC)c1OC`, which TGI is on record?
Answer: > 100 µM

Question: With `CCC(Sc1cc(Cl)c(C)cc1S(=O)(=O)Nc1nc(N)nc(N(C)C)n1)C(=O)O` (configuration not stated) as the compound, how does the TGI read?
Answer: > 10 µM

Question: For `O=C(N/N=C/c1ccc2c(c1)OCO2)Nc1ccccc1Cl`, which TGI is on record?
Answer: 8.25 µM

Question: For `CC1(C)C2CCC3=C(CCC4(C)C5C[C@](C)(C(=O)O)CC[C@]5(C)CC[C@]34C)[C@@]2(C)CC[C@@H]1O` (some centres not stated), which TGI is on record?
Answer: 59.1 µM

Question: How did the TGI turn out when `CCOC(=O)C(SCCO)C(C(=O)OCC)n1cnc2c(N)ncnc21` (configuration not stated) was run?
Answer: 59.2 µM

Question: With `O=C1CC(CC(O)[C@@H]2CCCC[C@@H]2O)CC(=O)N1c1ccccc1` (some centres not stated) as the compound, how does the TGI read?
Answer: > 100 µM

Question: `COc1ccc2nc3c([N+](=O)[O-])ccc4c3c(c2c1)N=CN4CCCN(C)C` was tested. Which TGI did it give?
Answer: 27.5 µM

Question: How did the TGI turn out when `Cc1c(C)c2c(c(N)c1C#N)C(=O)N(CCc1ccccc1)C2=O` was run?
Answer: > 100 µM

test system: SR leukemia; assay: NCI anticancer screen, dose series, 48 h

Question: How did the TGI turn out when `COc1cc(OCc2ccc3nc(-c4ccccc4)c(Cl)nc3c2)cc(OC)c1OC` was run?
Answer: > 100 µM

Question: How did the TGI turn out when `CCC(Sc1cc(Cl)c(C)cc1S(=O)(=O)Nc1nc(N)nc(N(C)C)n1)C(=O)O` (configuration not stated) was run?
Answer: > 10 µM

Question: With `O=C(N/N=C/c1ccc2c(c1)OCO2)Nc1ccccc1Cl` as the compound, how does the TGI read?
Answer: > 34.2 µM

Question: `CC1(C)C2CCC3=C(CCC4(C)C5C[C@](C)(C(=O)O)CC[C@]5(C)CC[C@]34C)[C@@]2(C)CC[C@@H]1O` (some centres not stated) was tested. Which TGI did it give?
Answer: > 100 µM

Question: `CCOC(=O)C(SCCO)C(C(=O)OCC)n1cnc2c(N)ncnc21` (configuration not stated) was tested. Which TGI did it give?
Answer: 14.5 µM

Question: With `O=C1CC(CC(O)[C@@H]2CCCC[C@@H]2O)CC(=O)N1c1ccccc1` (some centres not stated) as the compound, how does the TGI read?
Answer: > 100 µM

Question: For `COc1ccc2nc3c([N+](=O)[O-])ccc4c3c(c2c1)N=CN4CCCN(C)C`, which TGI is on record?
Answer: 1.03 µM

Question: Which TGI does the source give for `Cc1c(C)c2c(c(N)c1C#N)C(=O)N(CCc1ccccc1)C2=O` here?
Answer: > 100 µM
